Test results: ChEMBL document CHEMBL1201862, “PubChem BioAssay data set” (2004)
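Test compounds were applied to cells in 96-well plates for 48 hours at 5 doses. The concentration for 50% growth inhibition is given as GI50.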 Activity calls are given as the source filed them. No stated cut-off is given here; in the data, active = GI50 up to about 1.1 µM and inactive = higher.

How the values were obtained:
Experiment in all cases: NCI tumour cell line growth inhibition, 48 h
786-0 = system: 786-0
A549 = system: A549
CAKI-1 = system: CAKI-1
HCC 2998 = system: HCC 2998
HOP-92 = system: HOP-92
Hs-578T = system: Hs-578T
KM12 = system: KM12
MDA-MB-435 = system: MDA-MB-435
NCI-H226 = system: NCI-H226
NCI-H460 = system: NCI-H460
NCI-H522 = system: NCI-H522
OVCAR-5 = system: OVCAR-5
SF-539 = system: SF-539
SK-OV-3 = system: SK-OV-3
SN12C = system: SN12C
SNB-19 = system: SNB-19
T47D = system: T47D
TK-10 = system: TK-10
UACC-62 = system: UACC-62

Compound	GI50 (786-0)	GI50 (A549)	GI50 (CAKI-1)	GI50 (HCC 2998)	GI50 (HOP-92)	GI50 (Hs-578T)	GI50 (KM12)	GI50 (MDA-MB-435)	GI50 (NCI-H226)	GI50 (NCI-H460)	GI50 (NCI-H522)	GI50 (OVCAR-5)	GI50 (SF-539)	GI50 (SK-OV-3)	GI50 (SN12C)	GI50 (SNB-19)	GI50 (T47D)	GI50 (TK-10)	GI50 (UACC-62)
O=C(O)CC1(CC(=O)O)Nc2ccccc2SC1=O	> 100 µM (inactive)	> 100 µM (inactive)	> 100 µM (inactive)	> 100 µM (inactive)	> 100 µM (inactive)	> 100 µM (inactive)	> 100 µM (inactive)	> 100 µM (inactive)	> 100 µM (inactive)	> 100 µM (inactive)	> 100 µM (inactive)	> 100 µM (inactive)	0.0904 µM (active)	> 100 µM (inactive)	> 100 µM (inactive)	> 100 µM (inactive)	> 100 µM (inactive)	> 100 µM (inactive)	> 100 µM (inactive)
Cc1ccc(C)c(/C(=N\N=C(N)N)C2CC2)c1	37 µM (inactive)	43.3 µM (inactive)	> 100 µM (inactive)	20.4 µM (inactive)	47.2 µM (inactive)	26.1 µM (inactive)	39.9 µM (inactive)	22.8 µM (inactive)	31.7 µM (inactive)	18.1 µM (inactive)	28.6 µM (inactive)	29.9 µM (inactive)	32.3 µM (inactive)	> 100 µM (inactive)	56 µM (inactive)	48.9 µM (inactive)	45.5 µM (inactive)	34 µM (inactive)	35.6 µM (inactive)
COC(=O)C1=C(C)N2[C@H](C(=O)O)CS[C@@]2(C)[C@H](C(=O)OC)[C@H]1c1cccc([N+](=O)[O-])c1	> 100 µM (inactive)	> 100 µM (inactive)	> 100 µM (inactive)	> 100 µM (inactive)	54.5 µM (inactive)	> 100 µM (inactive)	> 100 µM (inactive)	> 100 µM (inactive)	> 100 µM (inactive)	> 100 µM (inactive)	> 100 µM (inactive)	> 100 µM (inactive)	> 100 µM (inactive)	> 100 µM (inactive)	> 100 µM (inactive)	> 100 µM (inactive)	> 100 µM (inactive)	> 100 µM (inactive)	> 100 µM (inactive)
NC1Cc2ccccc2OC1=O (stereo unspecified)	> 100 µM (inactive)	> 100 µM (inactive)	> 100 µM (inactive)	> 100 µM (inactive)		> 100 µM (inactive)	> 100 µM (inactive)	> 100 µM (inactive)	> 100 µM (inactive)	> 100 µM (inactive)	> 100 µM (inactive)	> 100 µM (inactive)	> 100 µM (inactive)	> 100 µM (inactive)	> 100 µM (inactive)	> 100 µM (inactive)	> 100 µM (inactive)	> 100 µM (inactive)	> 100 µM (inactive)
Cc1cc(N)c2cc(NC(=O)Nc3ccc4nc(C)cc(N)c4c3)ccc2n1	> 100 µM (inactive)	> 100 µM (inactive)	> 100 µM (inactive)	> 100 µM (inactive)	> 100 µM (inactive)	> 100 µM (inactive)	> 100 µM (inactive)	> 100 µM (inactive)	> 100 µM (inactive)	32.4 µM (inactive)	> 100 µM (inactive)	> 100 µM (inactive)		> 100 µM (inactive)	> 100 µM (inactive)	> 100 µM (inactive)	> 100 µM (inactive)	> 100 µM (inactive)	> 100 µM (inactive)
CCN(CC)CCN(C)CCc1ccc(Br)cc1	53.7 µM (inactive)	> 100 µM (inactive)	> 100 µM (inactive)	> 100 µM (inactive)	27.4 µM (inactive)	21.7 µM (inactive)	51.2 µM (inactive)	53.1 µM (inactive)	24.7 µM (inactive)	> 100 µM (inactive)	69.3 µM (inactive)	48 µM (inactive)	30.8 µM (inactive)	> 100 µM (inactive)	> 100 µM (inactive)	> 100 µM (inactive)	> 100 µM (inactive)	> 100 µM (inactive)	
